“Also recorded” adds a separate entry of the source.

What all share (format): cell-based
For assay [1], the system named is ERK1/2 nuclear translocation. Kind of assay: Determination of ERK1/2 localization by fluorescence microscopy after TPA stimulation. The settings on record: 10 μM, 2 hours, TPA 100 nM, 15 minutes. The procedure, abridged:
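HeLa, A2185 and A2352 melanoma cells treated with compounds for 2 h around TPA stimulation, then fixed (4% PFA), permeabilized and stained with anti-ERK antibodies, fluorescent secondaries and DAPI. Nuclear ERK1/2 localization scored by fluorescence microscopy (×40).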

Assay [2] concerns RSK1 phosphorylation (cytoplasmic target of ERK1/2). Nature of the assay: Western blot, phosphorylated RSK1. The conditions noted are these: 10 μM, 2 hours; TPA; A2185 or HeLa cells. As for the experimental part:
(§1) CoIP assay was conducted using αERK1 (C-terminus) antibodies conjugated to protein A/G agarose beads. The precipitates were analyzed by Western blot using the indicated antibodies. Whole cell lysates (WCL) and αIgG-mouse (IgG) are shown as controls. […] Cell extracts were analyzed by Western blot with the indicated antibodies. […] The same extracts described in (B) were subjected to Western blot analysis using αpAkt Abs. The closest molecular weight marker (kDa) is shown on the right of all relevant panels.
(§2) Bars indicate average of 2 independent experiments done in triplicate ±SE. […] Empty squares represent individual data points of proliferation. Full squares indicate average proliferation of 2 independent experiments done in triplicate ±SE. […] Cell viability (as shown in FIGS. 8A and 8B) was measured by staining with methylene blue, and data presents proliferation normalized to DMSO control. […] Cell lysates were analyzed by Western blot with the corresponding antibodies. Closest molecular marker is indicated at the right of each panel.
(§3) Preparation of Cellular Extracts and Western Blotting:
(§4) Cells were grown to 70% confluence and serum starved (0.1% FCS, 16 hours). After treatments, cells were rinsed twice with ice-cold PBS−/− and scraped into RIPA buffer. […]
On the technique in general: In western blotting, separated proteins are transferred to a membrane and probed.

Assay [3] has as its system ERK1/2 phosphorylated at the TEY activation loop motif. Nature of the assay: Western blot, ERK1/2 activation loop (TEY) phosphorylation. The settings on record: 10 μM, 2 hours; TPA; A2185 or HeLa cells. As to the method:
as §1, §2, §3, §4

The subject of assay [4] is c-Myc phosphorylation (nuclear target of ERK1/2). Kind of assay: Western blot, phosphorylated c-Myc. The settings on record: 10 μM, 2 hours; TPA; both A2185 and HeLa cells. As for the experimental part:
as §1, §2, §3, §4

Assay [5] has as its system Elk1 phosphorylation (nuclear target of ERK1/2). Kind of assay: Western blot, phosphorylated Elk1. The conditions noted are these: 10 μM, 2 hours; TPA; melanoma cell line A2185. As to the method:
as §1, §2, §3, §4

For a further assay, the system named is A2185 cells. Kind of assay: Viability assay, dose response in A2185 cells. The conditions noted are these: 0.1-10 μM, 72 hours, 1% FCS. As to the method: Four cancer cells, A2185, A2352, HeLa and MCF7 were grown in 1% FCS containing 10 μM of either EPE peptide, or Compounds Z56, Z1, Z2 or Z3, for 72 hours. Bars indicate average of 2 independent experiments done in triplicate ±SE. FIG. 8B presents dose response curves for Compounds Z56, Z1 and Z2. A2185 cells were grown in 1% FCS containing DMSO (0.1%) EPE or Scramble (Scr) peptide (10 μM), Compounds Z56, Z1, Z2, Z3 ([…]) or no treatment (FCS 1%) for 72 hours. Empty squares represent individual data points of proliferation. Full squares indicate average proliferation of 2 independent experiments done in triplicate ±SE. Bold horizontal line indicates arbitrary threshold (40%) for what is considered an active compound. Cell viability (as shown in FIGS. 8A and 8B) was measured by staining with methylene blue, and data presents proliferation normalized to DMSO control. […] Cell lysates were analyzed by Western blot with the corresponding antibodies. […]
Cells were seeded at low confluence into 24, 48 or 96-well plates in complete medium. […] Color was extracted by adding 0.1 M HCl (3 hours, 23° C.), and absorbance measured at 595 nm in an ELISA reader. For time course experiments, attached cells were fixed and measured at 0, 24, 48, 72 and 96 hours. […]

Consider `O=C(OC1C=CS(=O)(=O)C1)c1ccccc1` (stereo not shown) [Compound Z2], for which the “nuclear accumulation of ERK1/2 upon TPA stimulation” value in assay [1] (A2185 and A2352 cells) is reported as “inhibited”. Further, the “stimulated nuclear translocation of ERK1/2” value in assay [1] (A2352, A2185 and HeLa cells) was “significantly reduced”. Moreover, the “phosphorylation of the cytosolic target RSK1/2” value in assay [2] is on record as “none of Compounds Z56, Z1, Z2 or Z3 affected”. Also, in assay [3], the “phosphorylation of the activation loop of ERK1/2” value is “none of Compounds Z56, Z1, Z2 or Z3 affected”. Further, the “levels of phosphorylated c-Myc” value in assay [4] is “decreased”. For the same compound, the “levels of phosphorylated Elk1” value in assay [5] is listed as “decreased significantly”. For the same compound, the “cell viability, dose response curve” value with A2185 cells is “dose dependent manner; also recorded: somewhat less potent than Compound Z56”.

Source of the values: US12286439B2, “Inhibitors of ERK nuclear translocation” (Yeda Research and Development Co. Ltd., priority 2018, dated 2025).
